From ChEMBL document CHEMBL1201862, “PubChem BioAssay data set” (2004)
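Interpolation was linear, between the two tested concentrations surrounding the appropriate level; five concentrations were tested over 48 hours in 96-well plates. At the GI50, growth is halved.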 Activity calls are given as the source filed them. Cut-off read from the data, not from the text of the source: active = GI50 up to about 1.1 µM and inactive = higher.

How the values were obtained:
Experiment in all cases: inhibition of tumour cell growth, NCI panel, 48 h
EKVX = system: EKVX
LOX IMVI = system: LOX IMVI
KM12 = system: KM12
RPMI-8226 = system: RPMI-8226
TK-10 = system: TK-10
RXF 393 = system: RXF 393
HCT-116 = system: HCT-116
HCT-15 = system: HCT-15
MOLT-4 = system: MOLT-4
SR = system: SR
MDA-MB-435 = system: MDA-MB-435
SNB-19 = system: SNB-19
SK-MEL-28 = system: SK-MEL-28
NCI-H460 = system: NCI-H460
A498 = system: A498
HOP-62 = system: HOP-62
OVCAR-8 = system: OVCAR-8
SNB-75 = system: SNB-75
SF-539 = system: SF-539
CAKI-1 = system: CAKI-1

Structure (SMILES) | GI50 (EKVX) | GI50 (LOX IMVI) | GI50 (KM12) | GI50 (RPMI-8226) | GI50 (TK-10) | GI50 (RXF 393) | GI50 (HCT-116) | GI50 (HCT-15) [µM] | GI50 (MOLT-4) | GI50 (SR) | GI50 (MDA-MB-435) | GI50 (SNB-19) | GI50 (SK-MEL-28) | GI50 (NCI-H460) | GI50 (A498) | GI50 (HOP-62) | GI50 (OVCAR-8) | GI50 (SNB-75) | GI50 (SF-539) | GI50 (CAKI-1)
CCOC(=O)c1[nH]c(Br)c(-c2ccc(OC)c(OC)c2)c1Br | 4.12 µM (inactive) | 0.0179 µM (active) | 0.0303 µM (active) | 0.01 µM (active) | 14 µM (inactive) | 0.00906 µM (active) | 0.0183 µM (active) | 0.0527 | 0.0262 µM (active) | 0.0214 µM (active) | 0.0091 µM (active) | 0.181 µM (active) | 0.0562 µM (active) | 0.766 µM (active) | 0.0187 µM (active) | 0.0608 µM (active) | 0.0423 µM (active) | 0.0259 µM (active) | – | –
OCCNc1ncnc2c1ncn2C1OC(CO)C(O)C1O (stereo unspecified) | > 100 µM (inactive) | 40.4 µM (inactive) | > 100 µM (inactive) | 85.7 µM (inactive) | 71.3 µM (inactive) | > 100 µM (inactive) | 70.5 µM (inactive) | 42.5 | 0.224 µM (active) | – | > 100 µM (inactive) | > 100 µM (inactive) | > 100 µM (inactive) | 87.9 µM (inactive) | 57.7 µM (inactive) | > 100 µM (inactive) | 35 µM (inactive) | > 100 µM (inactive) | > 100 µM (inactive) | > 100 µM (inactive)
COc1ccc2nc3c([N+](=O)[O-])ccc4c3c(c2c1)N=CN4CCN(C)C | 4.65 µM (inactive) | 3.38 µM (inactive) | 3.86 µM (inactive) | 2.24 µM (inactive) | 6.34 µM (inactive) | – | 2.44 µM (inactive) | 2.57 | 2.04 µM (inactive) | 0.168 µM (active) | 6.67 µM (inactive) | 6.85 µM (inactive) | 7.01 µM (inactive) | 2.96 µM (inactive) | 4.16 µM (inactive) | 3.17 µM (inactive) | 2.82 µM (inactive) | 2.9 µM (inactive) | 3.28 µM (inactive) | 1.36 µM (inactive)
CCOC(=O)C1=C(N2CCCC2)C(=O)C(C(=O)OCC)C1 (stereo unspecified) | > 100 µM (inactive) | > 100 µM (inactive) | > 100 µM (inactive) | > 100 µM (inactive) | > 100 µM (inactive) | > 100 µM (inactive) | > 100 µM (inactive) | > 100 | > 100 µM (inactive) | – | > 100 µM (inactive) | > 100 µM (inactive) | > 100 µM (inactive) | > 100 µM (inactive) | > 100 µM (inactive) | > 100 µM (inactive) | > 100 µM (inactive) | > 100 µM (inactive) | > 100 µM (inactive) | > 100 µM (inactive)
CC1=C(CO)C(=O)O[C@@H]([C@@H](C)[C@H]2CC[C@H]3[C@@H]4C[C@@H](O)[C@@]5(O)CC=CC(=O)[C@]5(C)[C@H]4CC[C@]23C)C1 [JABOROSALACTONE D] | 49.2 µM (inactive) | 23.5 µM (inactive) | 19.8 µM (inactive) | 24.9 µM (inactive) | > 100 µM (inactive) | 22.3 µM (inactive) | 20.5 µM (inactive) | 16.4 | 26.6 µM (inactive) | – | 44.3 µM (inactive) | 46.5 µM (inactive) | 42.1 µM (inactive) | 19.1 µM (inactive) | 18.7 µM (inactive) | 64 µM (inactive) | 31.3 µM (inactive) | 25.9 µM (inactive) | 31 µM (inactive) | > 100 µM (inactive)
CC(C)[C@@H]1CC[C@@H](C)C[C@H]1OC(=O)c1c2n(c3ccccc13)C[C@H]1OC(C)(C)O[C@@H]21 | 6.81 µM (inactive) | 6.18 µM (inactive) | 9.08 µM (inactive) | 3.61 µM (inactive) | 18.5 µM (inactive) | 13.7 µM (inactive) | 4.36 µM (inactive) | 24.7 | 3.87 µM (inactive) | 3.23 µM (inactive) | 30.5 µM (inactive) | – | 46.7 µM (inactive) | – | – | 27.5 µM (inactive) | 20.9 µM (inactive) | – | – | 26.9 µM (inactive)
CCOC(=O)C(NC(=O)Nc1ccc(Cl)c(Cl)c1)C(F)(F)F (stereo unspecified) | 77.1 µM (inactive) | > 100 µM (inactive) | – | > 100 µM (inactive) | > 100 µM (inactive) | > 100 µM (inactive) | > 100 µM (inactive) | 40.9 | > 100 µM (inactive) | > 100 µM (inactive) | 87.1 µM (inactive) | > 100 µM (inactive) | > 100 µM (inactive) | – | > 100 µM (inactive) | – | > 100 µM (inactive) | > 100 µM (inactive) | > 100 µM (inactive) | –
O=C(CC(NC(=O)OCc1ccccc1)C(=O)NC1Cc2ccccc2C1=O)OCc1ccccc1 (stereo unspecified) | > 100 µM (inactive) | – | > 100 µM (inactive) | > 100 µM (inactive) | > 100 µM (inactive) | > 100 µM (inactive) | – | > 100 | > 100 µM (inactive) | > 100 µM (inactive) | > 100 µM (inactive) | > 100 µM (inactive) | > 100 µM (inactive) | > 100 µM (inactive) | – | > 100 µM (inactive) | > 100 µM (inactive) | 59.3 µM (inactive) | > 100 µM (inactive) | > 100 µM (inactive)
CCN(CC)C(=O)Cn1c(C)cc2ccccc21 | > 100 µM (inactive) | > 100 µM (inactive) | > 100 µM (inactive) | > 100 µM (inactive) | > 100 µM (inactive) | > 100 µM (inactive) | > 100 µM (inactive) | > 100 | > 100 µM (inactive) | > 100 µM (inactive) | > 100 µM (inactive) | > 100 µM (inactive) | > 100 µM (inactive) | > 100 µM (inactive) | – | > 100 µM (inactive) | > 100 µM (inactive) | > 100 µM (inactive) | > 100 µM (inactive) | > 100 µM (inactive)
O=C1c2ccccc2C(=O)N1n1c(Cc2ccc(Cl)cc2)n[nH]c1=O | > 100 µM (inactive) | > 100 µM (inactive) | > 100 µM (inactive) | – | > 100 µM (inactive) | – | > 100 µM (inactive) | > 100 | > 100 µM (inactive) | > 100 µM (inactive) | > 100 µM (inactive) | > 100 µM (inactive) | > 100 µM (inactive) | > 100 µM (inactive) | > 100 µM (inactive) | > 100 µM (inactive) | > 100 µM (inactive) | > 100 µM (inactive) | > 100 µM (inactive) | > 100 µM (inactive)
C/C(=C\c1ccc(Cl)c(Cl)c1)[N+](=O)[O-] | 2.08 µM (inactive) | 0.314 µM (active) | 2.02 µM (inactive) | – | 1.86 µM (inactive) | – | 2.77 µM (inactive) | 1.35 | 0.398 µM (active) | 0.685 µM (active) | 2.23 µM (inactive) | 2.39 µM (inactive) | 2.31 µM (inactive) | 20.7 µM (inactive) | 4.4 µM (inactive) | 2.5 µM (inactive) | 1.13 µM (inactive) | 4.2 µM (inactive) | 2.03 µM (inactive) | –
CNC(=O)Oc1ccc(C(=S)Nc2ccc(Br)cc2)cc1 | 8.05 µM (inactive) | 13.4 µM (inactive) | 14.3 µM (inactive) | 23 µM (inactive) | – | – | 19.8 µM (inactive) | 16.1 | 5.42 µM (inactive) | 13.6 µM (inactive) | 21.8 µM (inactive) | 36.3 µM (inactive) | 22 µM (inactive) | – | 18.4 µM (inactive) | 20.6 µM (inactive) | 7.98 µM (inactive) | – | 18.4 µM (inactive) | 17.8 µM (inactive)
Cc1cccc(NS(=O)(=O)c2ccc3c(c2)OCCOCCOCCOCCO3)c1 | > 100 µM (inactive) | – | > 100 µM (inactive) | > 100 µM (inactive) | > 100 µM (inactive) | – | > 100 µM (inactive) | > 100 | 63 µM (inactive) | 53 µM (inactive) | > 100 µM (inactive) | > 100 µM (inactive) | > 100 µM (inactive) | > 100 µM (inactive) | > 100 µM (inactive) | > 100 µM (inactive) | > 100 µM (inactive) | 51.5 µM (inactive) | > 100 µM (inactive) | > 100 µM (inactive)
Nc1ccc2ccc(-c3ccc[nH]3)nc2n1 | > 100 µM (inactive) | > 100 µM (inactive) | > 100 µM (inactive) | > 100 µM (inactive) | > 100 µM (inactive) | > 100 µM (inactive) | > 100 µM (inactive) | > 100 | – | – | > 100 µM (inactive) | > 100 µM (inactive) | > 100 µM (inactive) | > 100 µM (inactive) | > 100 µM (inactive) | > 100 µM (inactive) | > 100 µM (inactive) | > 100 µM (inactive) | > 100 µM (inactive) | > 100 µM (inactive)
COc1cccc(OC)c1NC(=O)C(=O)Nn1c(NNC(=O)c2ccncc2)nc2ccccc2c1=O | 84.9 µM (inactive) | > 100 µM (inactive) | > 100 µM (inactive) | > 100 µM (inactive) | > 100 µM (inactive) | > 100 µM (inactive) | > 100 µM (inactive) | > 100 | > 100 µM (inactive) | – | > 100 µM (inactive) | > 100 µM (inactive) | > 100 µM (inactive) | > 100 µM (inactive) | > 100 µM (inactive) | > 100 µM (inactive) | > 100 µM (inactive) | > 100 µM (inactive) | > 100 µM (inactive) | > 100 µM (inactive)
COc1ccc(Cl)cc1NC(=O)O/N=C(\Cl)C(C)C | 3.74 µM (inactive) | 2.08 µM (inactive) | 16.8 µM (inactive) | 2.06 µM (inactive) | 2.55 µM (inactive) | 3.76 µM (inactive) | 7.19 µM (inactive) | 2.64 | 2.03 µM (inactive) | – | 18.3 µM (inactive) | 29.5 µM (inactive) | 18.4 µM (inactive) | 17.1 µM (inactive) | 21.5 µM (inactive) | 18.4 µM (inactive) | 15 µM (inactive) | 16.4 µM (inactive) | 13.1 µM (inactive) | 1.82 µM (inactive)
